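How tested: cells in 96-well plates exposed to compound for 48 hours at five concentrations. GI50 is the concentration that inhibits growth by half.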 Activity calls are given as the source filed them. Rule as the data show it: active = GI50 up to about 1.1 µM and inactive = higher.
What was measured:
Assay in all cases: growth of human tumour cells (NCI), 48 h
COLO 205 = system: COLO 205
UACC-62 = system: UACC-62
UO-31 = system: UO-31
A549 = system: A549
EKVX = system: EKVX
SF-295 = system: SF-295
HT-29 = system: HT-29
SK-MEL-2 = system: SK-MEL-2
SW-620 = system: SW-620
SNB-19 = system: SNB-19
KM12 = system: KM12
SF-268 = system: SF-268
IGROV-1 = system: IGROV-1
SNB-75 = system: SNB-75
A498 = system: A498
OVCAR-3 = system: OVCAR-3
NCI-H460 = system: NCI-H460
HOP-62 = system: HOP-62

Measured: GI50

COc1ccc2n[se]nc2c1
inactive: COLO 205 > 100 µM | UACC-62 > 100 µM | UO-31 59.3 µM | A549 45.5 µM | EKVX > 100 µM | SF-295 32 µM | HT-29 > 100 µM | SK-MEL-2 41.5 µM | SW-620 > 100 µM | SNB-19 69.2 µM | KM12 56.4 µM | SF-268 > 100 µM | IGROV-1 38.9 µM | SNB-75 64.1 µM

N#CCN1CCOCCOCCN(CC#N)CCOCCOCC1
inactive: COLO 205 > 100 µM | UACC-62 > 100 µM | UO-31 > 100 µM | A549 > 100 µM | EKVX > 100 µM | SF-295 > 100 µM | A498 > 100 µM | OVCAR-3 > 100 µM | NCI-H460 > 100 µM | HT-29 > 100 µM | SW-620 > 100 µM | HOP-62 > 100 µM | SNB-19 > 100 µM | SF-268 > 100 µM | IGROV-1 > 100 µM | SNB-75 > 100 µM

O=C(O)CN(c1ccccc1)S(=O)(=O)c1ccccc1[N+](=O)[O-]
inactive: COLO 205 > 100 µM | UACC-62 > 100 µM | UO-31 > 100 µM | A549 > 100 µM | EKVX > 100 µM | SF-295 > 100 µM | A498 > 100 µM | OVCAR-3 > 100 µM | NCI-H460 > 100 µM | HT-29 > 100 µM | SK-MEL-2 > 100 µM | SW-620 > 100 µM | SNB-19 > 100 µM | KM12 > 100 µM | SF-268 > 100 µM | IGROV-1 > 100 µM | SNB-75 > 100 µM

C/C(O[Si](C(C)C)(C(C)C)C(C)C)=C(\C)C(=O)N(C)c1ccccc1Cl
inactive: COLO 205 > 100 µM | UO-31 > 100 µM | A549 > 100 µM | EKVX > 100 µM | SF-295 > 100 µM | A498 > 100 µM | OVCAR-3 > 100 µM | NCI-H460 > 100 µM | HT-29 > 100 µM | SW-620 > 100 µM | HOP-62 > 100 µM | SNB-19 > 100 µM | KM12 > 100 µM | SF-268 > 100 µM | IGROV-1 > 100 µM | SNB-75 81.5 µM

CC(C)N1CN(C(C(=O)N[C@@H]2C(=O)N3C2SC(C)(C)C3C(=O)O)c2ccccc2)CSC1=S (stereo partly drawn)
inactive: COLO 205 46.9 µM | UACC-62 > 100 µM | UO-31 > 100 µM | EKVX > 100 µM | SF-295 > 100 µM | A498 > 100 µM | OVCAR-3 > 100 µM | NCI-H460 43.7 µM | HT-29 96.6 µM | SK-MEL-2 > 100 µM | HOP-62 > 100 µM | SNB-19 > 100 µM | KM12 > 100 µM | SF-268 > 100 µM | IGROV-1 > 100 µM | SNB-75 > 100 µM

O=C(CSc1nnc(Cc2ccccc2)o1)Nc1ccc(Cl)cc1
inactive: COLO 205 > 100 µM | UACC-62 41.8 µM | UO-31 > 100 µM | A549 > 100 µM | EKVX 32.7 µM | SF-295 66.8 µM | A498 46.8 µM | OVCAR-3 68.2 µM | NCI-H460 77.3 µM | HT-29 47.4 µM | SK-MEL-2 82 µM | SW-620 > 100 µM | HOP-62 > 100 µM | SNB-19 > 100 µM | KM12 > 100 µM | IGROV-1 92 µM | SNB-75 67.8 µM

COC(=O)C(/C(=N\O)C(=O)Nc1ccc(Br)cc1)c1nc2ccccc2nc1O (stereo not drawn)
inactive: COLO 205 18.5 µM | UACC-62 26.9 µM | UO-31 > 100 µM | A549 > 100 µM | EKVX 67.3 µM | SF-295 > 100 µM | A498 61 µM | OVCAR-3 23.1 µM | NCI-H460 89.9 µM | HT-29 57.1 µM | SK-MEL-2 23 µM | HOP-62 28.4 µM | SNB-19 78.2 µM | KM12 > 100 µM | SF-268 39.2 µM | IGROV-1 19 µM | SNB-75 23.6 µM

C#CC1/C(=C\C(=O)OC)CCCC1O (stereo not drawn)
inactive: COLO 205 > 100 µM | UACC-62 > 100 µM | UO-31 > 100 µM | A549 > 100 µM | EKVX > 100 µM | SF-295 > 100 µM | A498 > 100 µM | OVCAR-3 > 100 µM | NCI-H460 > 100 µM | HT-29 > 100 µM | SK-MEL-2 > 100 µM | SW-620 > 100 µM | HOP-62 > 100 µM | SNB-19 > 100 µM | KM12 > 100 µM | SF-268 > 100 µM | IGROV-1 > 100 µM | SNB-75 > 100 µM

OC(c1ccccc1)(c1ccccc1)c1cccnc1
inactive: COLO 205 > 100 µM | UACC-62 > 100 µM | UO-31 > 100 µM | A549 > 100 µM | EKVX > 100 µM | SF-295 > 100 µM | A498 > 100 µM | OVCAR-3 > 100 µM | NCI-H460 > 100 µM | HT-29 > 100 µM | SK-MEL-2 > 100 µM | SW-620 > 100 µM | HOP-62 > 100 µM | SNB-19 > 100 µM | KM12 > 100 µM | SF-268 > 100 µM | IGROV-1 > 100 µM | SNB-75 86.1 µM

CN1CCN(CN2C(=O)C3C4C=CC(C3C2=O)C2C3C(=O)N(CN5CCN(C)CC5)C(=O)C3C42)CC1 (stereo not drawn)
inactive: COLO 205 17.5 µM | UACC-62 22.2 µM | UO-31 30.3 µM | A549 32.4 µM | A498 93.1 µM | OVCAR-3 21.4 µM | NCI-H460 16.1 µM | HT-29 33.4 µM | SW-620 19 µM | HOP-62 70 µM | KM12 20.1 µM | SF-268 25.3 µM | IGROV-1 34.2 µM | SNB-75 27.4 µM

C[P+](C)(CC(F)(F)F)c1ccccc1
inactive: COLO 205 > 100 µM | UACC-62 > 100 µM | UO-31 > 100 µM | A549 > 100 µM | EKVX > 100 µM | SF-295 > 100 µM | A498 > 100 µM | OVCAR-3 > 100 µM | NCI-H460 > 100 µM | HT-29 > 100 µM | SK-MEL-2 > 100 µM | SW-620 > 100 µM | HOP-62 > 100 µM | SNB-19 > 100 µM | KM12 > 100 µM | IGROV-1 > 100 µM | SNB-75 > 100 µM

Cc1nc(Nc2ccc(Cl)c(Cl)c2)sc1C(=O)/C=C/c1ccc2c(c1)OCO2
inactive: COLO 205 24.7 µM | UACC-62 37.6 µM | UO-31 16.9 µM | A549 22.3 µM | EKVX 34.5 µM | SF-295 20 µM | A498 23.3 µM | OVCAR-3 10.4 µM | NCI-H460 34.5 µM | HT-29 36.8 µM | SW-620 40.5 µM | HOP-62 17.9 µM | SNB-19 21.5 µM | KM12 20.9 µM | SF-268 24.3 µM | IGROV-1 38.6 µM | SNB-75 14.4 µM

COc1ccc(NC(=O)c2cc(OC)c(OC)c(OC)c2)cc1
inactive: COLO 205 26.5 µM | UACC-62 31 µM | UO-31 64.1 µM | A549 62.1 µM | EKVX > 69.2 µM | SF-295 36.1 µM | A498 43.6 µM | OVCAR-3 39.1 µM | NCI-H460 35.9 µM | HT-29 36.8 µM | SK-MEL-2 21.8 µM | SW-620 39.8 µM | HOP-62 33 µM | SNB-19 > 100 µM | KM12 22.8 µM | SF-268 > 56.4 µM | IGROV-1 66.1 µM | SNB-75 42.2 µM

COc1cc(OC)c2c(=O)c3c([N+](=O)[O-])cccc3n(C)c2c1
inactive: COLO 205 > 100 µM | UACC-62 > 100 µM | UO-31 > 100 µM | A549 > 100 µM | EKVX > 100 µM | SF-295 > 100 µM | A498 > 100 µM | OVCAR-3 > 100 µM | NCI-H460 > 100 µM | HT-29 > 100 µM | SK-MEL-2 > 100 µM | SW-620 > 100 µM | HOP-62 > 100 µM | SNB-19 > 100 µM | KM12 > 100 µM | SF-268 > 100 µM | IGROV-1 > 100 µM | SNB-75 > 100 µM

COc1ccc(/C=C2\CCC(C)(CN(C)C)C2=O)cc1OC (stereo not drawn)
inactive: COLO 205 > 100 µM | UACC-62 > 100 µM | UO-31 > 100 µM | A549 > 100 µM | EKVX 32.8 µM | SF-295 > 100 µM | A498 > 100 µM | OVCAR-3 > 100 µM | NCI-H460 > 100 µM | HT-29 > 100 µM | SK-MEL-2 > 100 µM | SW-620 > 100 µM | HOP-62 > 100 µM | SNB-19 > 100 µM | KM12 > 100 µM | SF-268 > 100 µM | IGROV-1 > 100 µM | SNB-75 > 100 µM

CNC(=O)CN(CC(=O)O)C(=O)NC
inactive: COLO 205 > 100 µM | UACC-62 > 100 µM | UO-31 > 100 µM | A549 > 100 µM | EKVX > 100 µM | SF-295 > 100 µM | A498 > 100 µM | OVCAR-3 > 100 µM | HT-29 > 100 µM | SK-MEL-2 > 100 µM | SW-620 > 100 µM | HOP-62 > 100 µM | SNB-19 > 100 µM | KM12 > 100 µM | SF-268 > 100 µM | IGROV-1 > 100 µM | SNB-75 > 100 µM
